Consider 3 compounds from ChEMBL document CHEMBL5727788, “Amido-benzyl sulfone and sulfoxide derivates” (2020).

The target in this assay is Nicotinamide phosphoribosyltransferase (Homo sapiens, UniProt P43490). In words: Enzymatic Reaction Assay: The NAMPT enzymatic reactions were carried out in Buffer A (50 mM Hepes pH 7.5, 50 mM NaCl, 5 mM MgCl2, and 1 mM THP) in 96-well V-bottom plates. The compound titrations were performed in a separate dilution plate by serially diluting the compounds in DMSO to make a 100× stock. Buffer A (89 μL) containing 33 nM of NAMPT protein was added to 1 μL of 100× compound plate containing controls (e.g. DMSO or blank). The compound and enzyme mixture was incubated for 15 min at rt, then 10 μL of 10× substrate and co-factors in Buffer A were added to the test well to make a final concentration of 1 μM NAM, 100 μM 5-Phospho-D-ribose 1-diphosphate (PRPP), and 2.5 mM Adenosine 5′-triphosphate (ATP). The reaction was allowed to proceed for 30 min at rt, then was quenched with the addition of 11 μL of a solution of formic acid and L-Cystathionine to make a final concentration of 1% formic acid and 10 μM L-Cystathionine. Background and signal strength was determined by addition (or non-addition) of a serial dilution of NMN to a pre-quenched enzyme and cofactor mix.
Nicotinamide phosphoribosyltransferase, sequence (P43490 whole entry): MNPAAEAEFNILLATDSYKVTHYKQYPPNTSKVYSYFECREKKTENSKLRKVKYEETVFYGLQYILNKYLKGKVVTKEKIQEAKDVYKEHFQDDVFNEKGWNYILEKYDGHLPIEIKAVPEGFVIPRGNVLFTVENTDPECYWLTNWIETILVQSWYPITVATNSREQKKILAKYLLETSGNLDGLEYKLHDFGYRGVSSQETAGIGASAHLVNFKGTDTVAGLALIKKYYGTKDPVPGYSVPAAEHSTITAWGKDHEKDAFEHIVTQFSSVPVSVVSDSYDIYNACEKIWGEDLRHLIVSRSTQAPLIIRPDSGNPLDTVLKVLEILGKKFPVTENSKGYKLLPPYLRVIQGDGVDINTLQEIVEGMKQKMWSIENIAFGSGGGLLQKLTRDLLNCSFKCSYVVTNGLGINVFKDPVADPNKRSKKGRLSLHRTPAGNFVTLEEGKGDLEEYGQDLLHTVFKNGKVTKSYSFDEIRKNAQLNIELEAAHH

Regarding `O=C(NCc1ccc(S(=O)(=O)N2CC3COCC3C2)cc1)c1cnc2[nH]ncc2c1` (mixture of isomers), the IC50 (commonly the concentration that inhibits the measured activity by half) came out at 0.15 µM. As to `CCN1CCC([S+]([O-])c2ccc(CNC(=O)c3ccc4nccn4c3)cc2)CC1` (stereo not drawn), the concentration for half-maximal inhibition (IC50) stood at 0.0434 µM.

With `CC(C)N1CCN(S(=O)(=O)c2ccc(CNC(=O)c3ccc4nccn4c3)cc2)CC1`, the IC50 is 0.0484 µM.
